Marks after values point to notes of the source that are not given here.
Assays:
Assay type in all cases: cell-based
[1] = tested on: late passage primary human fibroblasts; assay: Cell proliferation index by Ki67 immunofluorescence; settings: for increase in proliferative index: gene knockdown with morpholino oligonucleotides (10 μM)
Experimental: The proliferative capacity of treated cells was assessed by Ki67 and BrdU staining and by cell counts. Late passage primary human fibroblasts at PD=63 were seeded at 1×10^4 cells per well in 3 biological replicates in 24-well plates, allowed to grow for 10 days and then assayed for cell proliferation by ki67 staining. For assessment of cells in S phase, late passage primary human fibroblasts at PD=63 were seeded at 1×10^4 cells per coverslip as 3 biological replicates in 24-well plates, allowed to grow for 10 days and then were incubated with 5-Bromo-2′-deoxy-uridine (BrdU) for 24 hrs. BrdU incorporation was determined by the 5-Bromo-2′-deoxy-uridine labeling and detection kit I following instructions of the manufacturer (Roche Molecular Biochemicals). BrdU positive cells were visualized and counted by fluorescence microscopy. Cell counts were carried out manually in 3 biological replicates in treated and vehicle-only cultures following trypsinisation and suspension of cells and are presented as mean (+/−SEM). Following treatment, cells were fixed for 10 min with 4% PFA and permeabilized with 0.025% Triton and 10% serum in PBS for 1 hour. Ki-67 staining was carried out by rabbit monoclonal antibody (ab16667, Abcam, UK) at a 1:400 dilution and samples were incubated overnight at 4° C., followed by FITC-conjugated secondary goat anti-rabbit antibody (1:400) for 1 hour, and nuclei were counterstained with DAPI. Coverslips were mounted on slides in DAKO fluorescence mounting medium (S3023; Dako, Santa Clara, USA). The proliferation index was determined by counting the percentage of Ki67 positive cells from at least 400 nuclei from each biological replicate at 400× magnification under a Leica D4000 fluorescence microscope.

[2] = tested on: late passage primary human fibroblast cells; assay: SASP protein levels in culture medium (MesoScale multiplex ELISA); settings: 24 hrs, culture medium from senescent cells
Experimental: Late passage primary human fibroblast cells at PD=63 were seeded at 6×10^4 cells per well in a 6 well plate, cultured for 10 days and then treated with at 1 μM or 10 μM trametinib (MEK/ERK inhibitor) or SH-6 (AKT inhibitor) for 24 hours. Cell supernatants were then harvested and stored at −80° C. Levels of GMCSF, IFNγ, IL1β, IL2, IL6, IL8, IL10, IL-12p70, and TNFα SASP components were measured in cell supernatants from treated and vehicle-only control cells using the K15007B MesoScale Discovery multiplex ELISA immunoassay (MSD, Rockville, USA) in 4 biological replicates. Proteins were quantified relative to a standard curve using a Sector Imager SI-6000 according to the manufacturer's instructions.

[3] = tested on: senescent primary human fibroblasts; assay: Splicing factor transcript expression by qRTPCR (TLDA); settings: 24 hrs, control = 1.00
Experimental: Late passage primary human fibroblasts at PD=63 were seeded at 6×10^4 cells per well as 3 biological replicates in 6-well plates, allowed to grow for 10 days and then treated with the ERK inhibitor trametinib or the AKT inhibitor SH-6 at 1 μM or 10 μM for 24 hrs. Vehicle (DMSO) only controls were also included under the same growth conditions. The expression levels of 20 splicing factor transcripts previously associated with age, replicative senescence or lifespan in our previous work (Harries et al. 2011; Holly et al. 2013; Lee et al. 2016) were then assessed by qRTPCR. RNA was extracted using TRI Reagent® (Life Technologies, Foster City USA) according to the manufacturer's instructions. Total RNA (100 ng) was reverse transcribed in 20 μl reactions using the Superscript III VILO kit (Life Technologies). Transcript expression was then quantified in duplicate for each biological replicate using TaqMan Low Density Array (TLDA) on QuantStudio 12K Flex (Applied Biosystems, Foster City, USA). Cycling conditions were 1 cycle each of 50° C. for 2 min, 94.5° C. for 10 min and then 40 cycles of 97° C. for 30 s and 57.9° C. for 1 min. The reaction mixes included 50 μl TaqMan Fast Universal PCR Mastermix (Life Technologies), 30 μl dH2O and 20 μl cDNA template. 100 μl reaction mixture was dispensed into the TLDA card chamber and centrifuged twice for 1 min at 1000 rpm. Transcript expression was assessed by the Comparative Ct approach, relative to the IDH3B, GUSB and PP/A endogenous control genes and normalised to their expression in RNA from untreated late passage cells.

[4] = tested on: late passage primary human fibroblasts; assay: Cellular senescence by SA-β-Gal staining; settings: gene knockdown with morpholino oligonucleotides (10 μM)
[5] = tested on: late passage primary human fibroblasts; assay: CDKN2A (p16) and CDKN1A (p21) expression by qRTPCR; settings: gene knockdown with morpholino oligonucleotides (10 μM)

In the case of `CC(=O)Nc1cccc(-n2c(=O)n(C3CC3)c(=O)c3c(Nc4ccc(I)cc4F)n(C)c(=O)c(C)c32)c1` [Trametinib, trametinib], the “increase in proliferative index (Ki67 staining)” value ([1]; low dose (1 μM)) is reported as 31%, the “GM-CSF SASP protein expression” value ([2]; 1 uM) is reported as 24.65*** percentage of the control value and the “IL1b SASP protein expression” value ([2]; 1 uM) is reported as 156.70** percentage of the control value. For the same molecule, the “IL2 SASP protein expression” value ([2]; 1 uM) was 50.72** percentage of the control value, the “IL6 SASP protein expression” value ([2]; 1 uM) was 77.75 percentage of the control value and the “IL8 SASP protein expression” value ([2]; 1 uM) was 44.42** percentage of the control value. For the same molecule, the “IL10 SASP protein expression” value ([2]; 1 uM) was 34.37*** percentage of the control value, the “IL12p70 SASP protein expression” value ([2]; 1 uM) was 69.64 percentage of the control value and the “INF-g SASP protein expression” value ([2]; 1 uM) was 95.08 percentage of the control value. The “TNFa SASP protein expression” value ([2]; 1 uM) was 104.61 percentage of the control value, the “GM-CSF SASP protein expression” value ([2]; 10 uM) was 9.85*** percentage of the control value and the “IL1b SASP protein expression” value ([2]; 10 uM) was 50.35** percentage of the control value. The “IL2 SASP protein expression” value ([2]; 10 uM) was 14.39*** percentage of the control value, the “IL6 SASP protein expression” value ([2]; 10 uM) was 33.57*** percentage of the control value and the “IL8 SASP protein expression” value ([2]; 10 uM) was 5.33*** percentage of the control value. The “IL10 SASP protein expression” value ([2]; 10 uM) was 86.01 percentage of the control value, the “IL12p70 SASP protein expression” value ([2]; 10 uM) was 77.78 percentage of the control value and the “INF-g SASP protein expression” value ([2]; 10 uM) was 106.33 percentage of the control value. For the same molecule, the “TNFa SASP protein expression” value ([2]; 10 uM) was 118.65 percentage of the control value, the “AKAP17A splicing factor mRNA expression” value ([3]; 1 uM) was 2.01*** and the “HNRNPA0 splicing factor mRNA expression” value ([3]; 1 uM) was 2.38***. For the same molecule, the “HNRNPA1 splicing factor mRNA expression” value ([3]; 1 uM) was 1.52*, the “HNRNPA2B1 splicing factor mRNA expression” value ([3]; 1 uM) was 1.53* and the “HNRNPD splicing factor mRNA expression” value ([3]; 1 uM) was 1.79*. The “HNRNPH3 splicing factor mRNA expression” value ([3]; 1 uM) was 1.89***, the “HNRNPK splicing factor mRNA expression” value ([3]; 1 uM) was 1.68*** and the “HNRNPM splicing factor mRNA expression” value ([3]; 1 uM) was 1.46*. For the same molecule, the “HNRNPUL2 splicing factor mRNA expression” value ([3]; 1 uM) was 1.63***, the “IMP3 splicing factor mRNA expression” value ([3]; 1 uM) was 1.77*** and the “LSM2 splicing factor mRNA expression” value ([3]; 1 uM) was 0.85. The “LSM14A splicing factor mRNA expression” value ([3]; 1 uM) was 1.61**, the “PNISR splicing factor mRNA expression” value ([3]; 1 uM) was 1.63** and the “SF3B1 splicing factor mRNA expression” value ([3]; 1 uM) was 1.93***. The “SRSF1 splicing factor mRNA expression” value ([3]; 1 uM) was 1.69*, the “SRSF2 splicing factor mRNA expression” value ([3]; 1 uM) was 2.07** and the “SRSF3 splicing factor mRNA expression” value ([3]; 1 uM) was 1.64***. For the same molecule, the “SRSF6 splicing factor mRNA expression” value ([3]; 1 uM) was 2.68***, the “SRSF7 splicing factor mRNA expression” value ([3]; 1 uM) was 2.38*** and the “TRA2B splicing factor mRNA expression” value ([3]; 1 uM) was 1.66*. For the same molecule, the “AKAP17A splicing factor mRNA expression” value ([3]; 10 uM) was 0.74**, the “HNRNPA0 splicing factor mRNA expression” value ([3]; 10 uM) was 1.11 and the “HNRNPA1 splicing factor mRNA expression” value ([3]; 10 uM) was 0.49***. For the same molecule, the “HNRNPA2B1 splicing factor mRNA expression” value ([3]; 10 uM) was 0.70***, the “HNRNPD splicing factor mRNA expression” value ([3]; 10 uM) was 0.75** and the “HNRNPH3 splicing factor mRNA expression” value ([3]; 10 uM) was 0.95. The “HNRNPK splicing factor mRNA expression” value ([3]; 10 uM) was 1.02, the “HNRNPM splicing factor mRNA expression” value ([3]; 10 uM) was 0.69*** and the “HNRNPUL2 splicing factor mRNA expression” value ([3]; 10 uM) was 0.94. For the same molecule, the “IMP3 splicing factor mRNA expression” value ([3]; 10 uM) was 0.97, the “LSM2 splicing factor mRNA expression” value ([3]; 10 uM) was 0.82 and the “LSM14A splicing factor mRNA expression” value ([3]; 10 uM) was 1.18. For the same molecule, the “PNISR splicing factor mRNA expression” value ([3]; 10 uM) was 1.11, the “SF3B1 splicing factor mRNA expression” value ([3]; 10 uM) was 0.96 and the “SRSF1 splicing factor mRNA expression” value ([3]; 10 uM) was 0.68**. For the same molecule, the “SRSF2 splicing factor mRNA expression” value ([3]; 10 uM) was 0.86*, the “SRSF3 splicing factor mRNA expression” value ([3]; 10 uM) was 0.72*** and the “SRSF6 splicing factor mRNA expression” value ([3]; 10 uM) was 0.69***. The “SRSF7 splicing factor mRNA expression” value ([3]; 10 uM) was 0.57*** and the “TRA2B splicing factor mRNA expression” value ([3]; 10 uM) was 0.73**.
“ETV6 morpholino: Antisense morpholino to 5′ untranslated region of ETV6: CATGTCTCACAGCGAGAGAGATCAG (all phosphorodiamidate morpholino (PMO))” was tested, and the “increase in proliferative index” value [1] was 36%, the “reduction in senescent cell load as measured by SA-β-Gal staining” value [4] was roughly 18% and the “reduction in CDKN2A expression” value [5] was 24%.
For “FOXO1 morpholino: Antisense morpholino to 5′ untranslated region of FOXO1: TCCCCCAGCCGCAGGAGAGCCAAGA (all phosphorodiamidate morpholino (PMO))”, the “increase in proliferative index” value [1] was 19%, the “reduction in senescent cell load as measured by SA-β-Gal staining” value [4] was roughly 40% and the “reduction in CDKN2A expression” value [5] was 43%.

From US20210292765A1, “COMPOSITIONS COMPRISING INTERMEDIATE NON-CODING RNA REGULATORS MODULATING THE EXPRESSION OF ETV6 OR FOXO1 AND USES THEREOF” (University of Exeter, priority 2018, published 2021)
